Legend:
HCT116 parental cells = assay: Proliferation assay (CellTiter-Glo, 10 days of treatment), HCT116 parental; format: cell-based; conditions: Homo sapiens, HCT-116, 240 h
How it was run: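 250 cells seeded in McCoy's 5A with 10% FBS, then given a dose response of PRMT5 inhibitor at 37 °C, 5% CO2 for five days. Cells were split 1:10 on Day 6 into fresh medium with the same compound concentration for 5 more days. Viability read on Day 11 by CellTiter-Glo; IC50 after 10 days of treatment.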

[1] = system: PRMT5-dependent Symmetric Di-methyl Arginine signal in HCT116 parental cells; assay: SYM11 In-Cell Western, HCT116 parental; format: cell-based; conditions: Homo sapiens, HCT-116, 96 h, 4 days of treatment, SYM11/DRAQ5 ratio
How it was run: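 HCT116 parental cells (2,000/well, McCoy's 5A with 10% FBS) dosed with PRMT5 inhibitors for four days at 37° C. Fixed in paraformaldehyde and methanol, then stained with SYM11 antibody and DRAQ5.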

PRMT5/MEP50 complex = PRMT5/MEP50 complex (Homo sapiens (Human), UniProt O14744); assay: PRMT5:MEP50 HotSpot Assay (full-length histone H2A substrate, plus and minus MTA); format: biochemical; conditions: IC50 + 2 μM MTA, in the presence of 2 μM MTA
How it was run: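 Tritium incorporated into recombinant full-length histone H2A was counted by scintillation after stopped reactions were captured on filter paper.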

[2] = system: PRMT5-dependent Symmetric Di-methyl Arginine signal in HCT116 homozygous MTAP knockout cells; assay: SYM11 In-Cell Western, HCT116 MTAP knockout; format: cell-based; conditions: Homo sapiens, HCT-116, 96 h, HCT116 homozygous MTAP knockout cells, 4 days of treatment, SYM11/DRAQ5 ratio; read-out: In-cell-Western (SYM11) HCT116 MTAP_KO IC50
[3] = system: HCT116 homozygous MTAP knockout cells; assay: Proliferation assay (CellTiter-Glo, 10 days of treatment), HCT116 MTAP knockout; format: cell-based; conditions: Homo sapiens, HCT-116, 240 h, read-out: Proliferation HCT116MTAP_KO IC50
How it was run: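 Viability of the CRISPR/Cas9 homozygous MTAP-knockout HCT116 line was read by CellTiter-Glo after 10 days of PRMT5 inhibitor exposure, with IC50 derived from the dose response. Compound was given the day after seeding and renewed at an identical concentration when cells were split 1:10 on day 6.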

Sequence of PRMT5/MEP50 complex (O14744 2-637): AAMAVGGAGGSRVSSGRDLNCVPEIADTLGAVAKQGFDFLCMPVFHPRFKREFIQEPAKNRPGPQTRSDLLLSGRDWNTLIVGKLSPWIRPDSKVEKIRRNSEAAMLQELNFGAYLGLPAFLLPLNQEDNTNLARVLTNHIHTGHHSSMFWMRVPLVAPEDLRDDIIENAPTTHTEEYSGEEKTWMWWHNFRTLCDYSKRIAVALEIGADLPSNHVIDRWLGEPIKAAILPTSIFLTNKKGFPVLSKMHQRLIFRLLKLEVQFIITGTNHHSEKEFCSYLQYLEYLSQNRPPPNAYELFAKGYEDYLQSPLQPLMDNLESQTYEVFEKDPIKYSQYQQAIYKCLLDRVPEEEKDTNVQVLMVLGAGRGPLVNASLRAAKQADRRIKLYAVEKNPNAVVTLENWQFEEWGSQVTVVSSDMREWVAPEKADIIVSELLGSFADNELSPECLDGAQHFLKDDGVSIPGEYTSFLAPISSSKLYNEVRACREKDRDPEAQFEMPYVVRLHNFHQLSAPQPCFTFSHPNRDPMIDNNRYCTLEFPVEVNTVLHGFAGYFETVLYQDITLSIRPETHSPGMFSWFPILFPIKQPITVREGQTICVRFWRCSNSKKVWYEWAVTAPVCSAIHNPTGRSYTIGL
Sequence of PRMT5/MEP50 complex (Q9BQA1 2-342 partner): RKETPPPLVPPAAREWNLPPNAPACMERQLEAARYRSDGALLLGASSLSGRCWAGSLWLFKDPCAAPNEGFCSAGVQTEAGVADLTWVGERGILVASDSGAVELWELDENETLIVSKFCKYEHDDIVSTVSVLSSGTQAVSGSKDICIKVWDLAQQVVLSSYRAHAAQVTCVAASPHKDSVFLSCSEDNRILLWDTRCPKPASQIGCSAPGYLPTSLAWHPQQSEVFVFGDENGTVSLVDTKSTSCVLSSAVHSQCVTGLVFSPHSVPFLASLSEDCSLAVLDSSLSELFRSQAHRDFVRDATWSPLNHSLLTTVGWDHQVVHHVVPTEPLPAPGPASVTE

Structure (SMILES) | IC50 (HCT116 parental cells) | IC50 [1] | IC50 (PRMT5/MEP50 complex) | IC50 [2] | IC50 [3]
CCc1cc(Cl)cc(-c2c(-c3ccc4c(=O)[nH]nc(CN)c4c3)cnn2C)c1C#N [Example 4-200, 2-(4-(4-(aminomethyl)-1-oxo-1,2-dihydrophthalazin-6-yl)-1-methyl-1H-pyrazol-5-yl)-4-chloro-6-ethylbenzonitrile] | 4300 nM | 1750 nM | 156 nM | 32 nM | 71 nM
CCc1cc(OC)cc(-c2c(-c3ccc4c(=O)[nH]nc(CN)c4c3)cnn2C)c1C#N [Example 4-202, 2-(4-(4-(aminomethyl)-1-oxo-1,2-dihydrophthalazin-6-yl)-1-methyl-1H-pyrazol-5-yl)-6-ethyl-4-methoxybenzonitrile] | 2370 nM | > 1000 nM | 255 nM | 8 nM | 232 nM
COc1cc(-c2c(-c3ccc4c(=O)[nH]nc(CN)c4c3)cnn2C)c(C#N)c2ccccc12 [Example 4-205, 2-(4-(4-(aminomethyl)-1-oxo-1,2-dihydrophthalazin-6-yl)-1-methyl-1H-pyrazol-5-yl)-4-methoxy-1-naphthonitrile] | 683 nM | > 1000 nM | 23 nM | 6 nM | 59 nM
Cn1ncc(-c2ccc3c(=O)[nH]nc(CN)c3c2)c1-c1cc(Cl)c2ccccc2c1C#N [Example 4-206, 2-(4-(4-(aminomethyl)-1-oxo-1,2-dihydrophthalazin-6-yl)-1-methyl-1H-pyrazol-5-yl)-4-chloro-1-naphthonitrile] | 1000 nM | > 1000 nM | 35 nM | 3 nM | 34 nM
Cn1ncc(-c2ccc3c(=O)[nH]nc(CN)c3c2)c1-c1sc2ccccc2c1C#N [Example 4-242, 2-(4-(4-(aminomethyl)-1-oxo-1,2-dihydrophthalazin-6-yl)-1-methyl-1H-pyrazol-5-yl)benzo[b]thiophene-3-carbonitrile] | 4990 nM | > 1000 nM | 102 nM | 2 nM | 44 nM
Cn1ncc(-c2cc(Cl)c3c(=O)[nH]nc(CN)c3c2)c1-c1ccc2ccccc2c1C#N [Example 10-1, 2-(4-(4-(aminomethyl)-8-chloro-1-oxo-1,2-dihydrophthalazin-6-yl)-1-methyl-1H-pyrazol-5-yl)-1-naphthonitrile] | 2300 nM | 1120 nM | 41.7 nM | 15 nM | 36 nM
Cn1ncc(-c2cc(F)c3c(=O)[nH]nc(CN)c3c2)c1-c1ccc2ccccc2c1C#N [Example 10-2, 2-(4-(4-(aminomethyl)-8-fluoro-1-oxo-1,2-dihydrophthalazin-6-yl)-1-methyl-1H-pyrazol-5-yl)-1-naphthonitrile] | 3380 nM | 2480 nM | 67.2 nM | 6 nM | 112 nM
Cn1ncc(-c2cc(Cl)c3c(=O)[nH]nc(CN)c3c2)c1-c1cccc(Cl)c1C#N [Example 10-3, 2-(4-(4-(aminomethyl)-8-chloro-1-oxo-1,2-dihydrophthalazin-6-yl)-1-methyl-1H-pyrazol-5-yl)-6-chlorobenzonitrile] | 8480 nM | 3820 nM | 845 nM | 5 nM | 240 nM
CCc1cccc(-c2c(-c3cc(Cl)c4c(=O)[nH]nc(CN)c4c3)cnn2C)c1C#N [Example 10-4, 2-(4-(4-(aminomethyl)-8-chloro-1-oxo-1,2-dihydrophthalazin-6-yl)-1-methyl-1H-pyrazol-5-yl)-6-ethylbenzonitrile] | > 10000 nM | 9220 nM | 417 nM | 7 nM | 128 nM
CCOc1cccc(-c2c(-c3cc(Cl)c4c(=O)[nH]nc(CN)c4c3)cnn2C)c1C#N [Example 10-5, 2-(4-(4-(aminomethyl)-8-chloro-1-oxo-1,2-dihydrophthalazin-6-yl)-1-methyl-1H-pyrazol-5-yl)-6-ethoxybenzonitrile] | > 10000 nM | > 10000 nM | 1150 nM | 30 nM | 250 nM
Cn1ncc(-c2cc(F)c3c(=O)[nH]nc(CN)c3c2)c1-c1cccc(Cl)c1C#N [Example 10-6, 2-(4-(4-(aminomethyl)-8-fluoro-1-oxo-1,2-dihydrophthalazin-6-yl)-1-methyl-1H-pyrazol-5-yl)-6-chlorobenzonitrile] | > 10000 nM | > 10000 nM | 6630 nM | 219 nM | 4090 nM
CCc1cccc(-c2c(-c3cc(C)c4c(=O)[nH]nc(CN)c4c3)cnn2C)c1C#N [Example 10-7, 2-(4-(4-(aminomethyl)-8-methyl-1-oxo-1,2-dihydrophthalazin-6-yl)-1-methyl-1H-pyrazol-5-yl)-6-ethylbenzonitrile] | 8390 nM | > 1000 nM | 107 nM | 31 nM | 103 nM
CCc1cccc(-c2c(-c3cc(F)c4c(=O)[nH]nc(CN)c4c3)cnn2C)c1C#N [Example 10-8, 2-(4-(4-(aminomethyl)-8-fluoro-1-oxo-1,2-dihydrophthalazin-6-yl)-1-methyl-1H-pyrazol-5-yl)-6-ethylbenzonitrile] | > 10000 nM | 4720 nM | 660 nM | 27 nM | 276 nM
CCOc1cccc(-c2c(-c3cc(F)c4c(=O)[nH]nc(CN)c4c3)cnn2C)c1C#N [Example 10-10, 2-(4-(4-(aminomethyl)-8-fluoro-1-oxo-1,2-dihydrophthalazin-6-yl)-1-methyl-1H-pyrazol-5-yl)-6-ethoxybenzonitrile] | > 10000 nM | > 10000 nM | 2730 nM | 89 nM | 1250 nM
Cc1cc(-c2cnn(C)c2-c2ccc3ccccc3c2C#N)cc2c(CN)n[nH]c(=O)c12 [Example 10-11, 2-(4-(4-(aminomethyl)-8-methyl-1-oxo-1,2-dihydrophthalazin-6-yl)-1-methyl-1H-pyrazol-5-yl)-1-naphthonitrile] | 763 nM | 4260 nM | 34 nM | 5 nM | 29 nM
Cc1cc(-c2cnn(C)c2-c2cccc(OC3CC3)c2C#N)cc2c(CN)n[nH]c(=O)c12 [Example 10-12, 2-(4-(4-(aminomethyl)-8-methyl-1-oxo-1,2-dihydrophthalazin-6-yl)-1-methyl-1H-pyrazol-5-yl)-6-cyclopropoxybenzonitrile] | 6200 nM | > 1000 nM | 155 nM | 6 nM | 91 nM
[2H]C([2H])(N)c1n[nH]c(=O)c2ccc(-c3cnn(C)c3-c3cccc(Cl)c3C#N)cc12 [Example 11-1, 2-(4-(4-(aminomethyl-d2)-1-oxo-1,2-dihydrophthalazin-6-yl)-1-methyl-1H-pyrazol-5-yl)-6-chlorobenzonitrile] | > 10000 nM | > 1000 nM | 1970 nM | 57 nM | 807 nM
[2H]C([2H])(N)c1n[nH]c(=O)c2ccc(-c3cnn(C)c3-c3ccc4ccccc4c3C#N)cc12 [Example 11-2, 2-(4-(4-(aminomethyl-d2)-1-oxo-1,2-dihydrophthalazin-6-yl)-1-methyl-1H-pyrazol-5-yl)-1-naphthonitrile] | 1950 nM | > 10000 nM | 138 nM | 1 nM | 94 nM
